Patent publication US20240279144A1, “CONTROL OF IODIDES IN ACETIC ACID PRODUCTION” (LyondellBasell Acetyls, LLC, priority 2023, published 2024)

What was measured:
[1] = for solubility, bis(diphenylphosphino) series: acetonitrile or glacial acetic acid (GAA)
[2] = FTIR P═O stretching frequency in acetonitrile as a gauge of basicity; type: physicochemical; conditions: lower frequency = higher basicity
Method: FTIR analyses were carried out on a Nicolet 6700 FTIR spectrometer equipped with a 3 bounce zinc selenide (ZnSe) attenuated total reflectance (ATR) crystal assembly. 0.1 mL aliquots of solution were removed from samples via micro-syringe. The solution was then placed on the crystal and an FTIR spectrum was obtained.

[3] = Vapor-liquid-equilibrium (VLE) test: iodide measured in the condensed vapor phase (suppression of HI volatilization); type: physicochemical
[4] = pKb (basicity) of Group 15 oxides
[5] = additive 0.05 molar, 0.1M HI, 1.3M H2O (2 wt %), GAA, approximately 140° C.
[6] = additive 0.1 molar, 0.1M HI, 1.3M H2O (2 wt %), GAA, approximately 140° C.

Compound	P═O, cm^−1 [2]	HI (ppm in vapor) [3, 5]	HI (ppm in vapor) [3, 6]	further results
c1ccc(P(CCCCCCP(c2ccccc2)c2ccccc2)c2ccccc2)cc1				solubility, bis(diphenylphosphino) series [1]: insoluble
O=P(CP(=O)(C1CCCCC1)C1CCCCC1)(C1CCCCC1)C1CCCCC1 [Bis-DiCyPMeO2]	1,160.1 cm^−1			
O=P(CP(=O)(c1ccccc1)c1ccccc1)(c1ccccc1)c1ccccc1 [Bis-DPPMeO2, bis(diphenylphosphino)methane dioxide]	1,197.7 cm^−1	7,889 ppm	876 ppm	
O=P(CCCCCP(=O)(c1ccccc1)c1ccccc1)(c1ccccc1)c1ccccc1 [Bis-DPPPeO2, bis(diphenylphosphino)pentane dioxide]	1,178.2 cm^−1	5,392 ppm	683 ppm	
O=P(CCCP(=O)(c1ccccc1)c1ccccc1)(c1ccccc1)c1ccccc1 [Bis-DPPPrO2, bis(diphenylphosphino)propane dioxide]	1,180.8 cm^−1	6,291 ppm	421 ppm	
O=[As](c1ccccc1)(c1ccccc1)c1ccccc1 [Ph3AsO, triphenyl arsine oxide]				HI (ppm in vapor) ([3]; Table 5, additive 0.25 molar, 1:1 molar ratio of additive to HI): 1,132 ppm; effectiveness in suppressing volatilization of HI relative to the CMPO ([3]; equivalent molarity, Table 5 conditions): about 7 times; solubility in GAA upon addition of HI ([1]; HI added): soluble; solubility in GAA ([1]; without added HI): soluble; pKb [4]: 4.15
O=P(CCCP(=O)(c1ccccc1)c1ccccc1)(c1ccccc1)c1ccccc1 [Bis-DPPPrO]	1,180.0 cm^−1			
c1ccc(P(CCCCP(c2ccccc2)c2ccccc2)c2ccccc2)cc1				solubility, bis(diphenylphosphino) series [1]: insoluble
O=P(c1ccccc1)(c1ccccc1)c1ccccc1 [TPPO, triphenylphosphine oxide, reference compound]	1,191.6 cm^−1			
